Laboratory results from patent US10631540B2, “Plant disease control composition, and plant disease control method” (Sumitomo Chemical Company, Limited, priority 2015, dated 2020).

What was measured:
[1] = test system: Pythium damping-off pathogen (Pythium irregulare); experiment: Soybean seed treatment test against Pythium damping-off (Test Example 1); assay type: in vivo; details: soybean (Hatayutaka) seed treatment; dose rate gai/100 kg seed where present: ethaboxam 3.75, metalaxyl 1.0, oxathiapiprolin 3.75; grown 15° C. 5 days then 25° C. 10 days
Protocol: An acetone solution containing the compounds was prepared such that the amounts of compounds to be treated for seeds were set to the dose rate listed in Table 1. 10 g of seeds of soybean (Hatayutaka) and 80 μl of the acetone solution were added to a plastic container, the container was covered with a lid and then shaken, and then the seeds taken out of the container were left overnight, thereby obtaining treated seeds. A plastic pot was filled with culture soil, and the treated seeds were sowed and then were covered with culture soil mixed with seeds of grass turf which was infected with Pythium damping-off pathogen (Pythium irregulare). After irrigation, the seeds were grown at 15° C. for 5 days and then grown at 25° C. for 10 days. This area was set to a treated area. Further, soybeans were grown in the same manner as in the treated area except that a chemical agent was not applied to the seeds. This area was set to a non-treated area. The incidence of disease of plants in the treated area and the non-treated area were calculated using the following “Equation 1”. The control values were calculated using the following “Equation 2”. […] A: Incidence of disease of plants of non-treated area B: Incidence of disease of plants of treated area

[2] = test system: Pythium damping-off pathogen (Pythium ultimum); experiment: Soybean seed treatment test against Pythium damping-off (Test Example 2); assay type: in vivo; details: soybean (Hatayutaka) seed treatment; dose rate gai/100 kg seed where present: ethaboxam 3.75, metalaxyl 1.0, oxathiapiprolin 3.75; grown 15° C. 5 days then 25° C. 10 days
Protocol: An acetone solution containing the compounds was prepared such that the amounts of compounds to be treated for seeds were set to the dose rate listed in Table 2. 10 g of seeds of soybean (Hatayutaka) and 80 μl of the acetone solution were added to a plastic container, the container was covered with a lid and then shaken, and then the seeds taken out of the container were left overnight, thereby obtaining treated seeds. A plastic pot was filled with culture soil, and the treated seeds were sowed and then were covered with culture soil mixed with seeds of grass turf which was infected with Pythium damping-off pathogen (Pythium ultimum). After irrigation, the seeds were grown at 15° C. for 5 days and then grown at 25° C. for 10 days. This area was set to a treated area. Further, soybeans were grown in the same manner as in the treated area except that a chemical agent was not applied to the seeds. This area was set to a non-treated area. The incidence of disease of plants in the treated area and the non-treated area were calculated using the above-described “Equation 1”. The control values were calculated using the above-described “Equation 2”.

| SMILES | Control value (%) [1] [%] | Control value (%) [2] [%] |
| --- | --- | --- |
| COCC(=O)N(c1c(C)cccc1C)C(C)C(=O)OC (racemic) [Metalaxyl, metalaxyl] | 6 | 0 |
| CCNc1nc(CC)c(C(=O)NC(C#N)c2cccs2)s1 (stereo not drawn) [Ethaboxam, ethaboxam] | 9 | 14 |
| Cc1cc(C(F)(F)F)nn1CC(=O)N1CCC(c2nc(C3=NOC(c4c(F)cccc4F)C3)cs2)CC1 (stereo not drawn) [Oxathiapiprolin, oxathiapiprolin] | 6 | 14 |
